From patent US20250085300A1, “STABILITY-ENHANCING COMPOSITIONS AND METHODS OF PREPARING COMPOUNDS” (FOGHORN THERAPEUTICS INC., priority 2021, published 2025)
Entries after “also recorded” stand apart in the source; their conditions may differ.

Experiments:
[1] = molecular target: T1, Nanoluciferase-BRD9 fusion protein (Homo sapiens, UniProt Q9H8M2); assay: SYO1 BRD9 NanoLuc degradation assay; assay type: cell-based; settings: 6 hours
T1 construct: expressed in transfected cells
Method: Procedure: A stable SYO-1 cell line expressing 3×FLAG-NLuc-BRD9 was generated. On day 0 cells were seeded in 30 μL media into each well of 384-well cell culture plates. The seeding density was 8000 cells/well. On day 1, cells were treated with 30 nL DMSO or 30 nL of 3-fold serially DMSO-diluted compounds (10 points in duplicates with 1 μM as final top dose). Subsequently plates were incubated for 6 hours in a standard tissue culture incubator and equilibrated at room temperature for 15 minutes. Nanoluciferase activity was measured by adding 15 μL of freshly prepared Nano-Glo Luciferase Assay Reagent (Promega N1130), shaking the plates for 10 minutes and reading the bioluminescence using an EnVision reader.
Results: The Inhibition % was calculated using the following formula: % Inhibition=100×(LumHC−LumSample)/(LumHC−LumLC). DMSO treated cells are employed as High Control (HC) and 1 μM of a known BRD9 degrader standard treated cells are employed as Low Control (LC).

BRD9 = molecular target: T2, BRD9 (Homo sapiens, UniProt Q9H8M2); assay: BRD9 western blot in synovial sarcoma tumors in vivo (Example 11); set-up: species or system mice; settings: 1 mg/kg i.p. for 4 weeks
T2 construct: Tumors were lysed with 1×RIPA lysis buffer; from tissue; host or cells: SYO-1 xenograft tumours from BALB/c Nude mice
T2 sequence (Q9H8M2 1-597): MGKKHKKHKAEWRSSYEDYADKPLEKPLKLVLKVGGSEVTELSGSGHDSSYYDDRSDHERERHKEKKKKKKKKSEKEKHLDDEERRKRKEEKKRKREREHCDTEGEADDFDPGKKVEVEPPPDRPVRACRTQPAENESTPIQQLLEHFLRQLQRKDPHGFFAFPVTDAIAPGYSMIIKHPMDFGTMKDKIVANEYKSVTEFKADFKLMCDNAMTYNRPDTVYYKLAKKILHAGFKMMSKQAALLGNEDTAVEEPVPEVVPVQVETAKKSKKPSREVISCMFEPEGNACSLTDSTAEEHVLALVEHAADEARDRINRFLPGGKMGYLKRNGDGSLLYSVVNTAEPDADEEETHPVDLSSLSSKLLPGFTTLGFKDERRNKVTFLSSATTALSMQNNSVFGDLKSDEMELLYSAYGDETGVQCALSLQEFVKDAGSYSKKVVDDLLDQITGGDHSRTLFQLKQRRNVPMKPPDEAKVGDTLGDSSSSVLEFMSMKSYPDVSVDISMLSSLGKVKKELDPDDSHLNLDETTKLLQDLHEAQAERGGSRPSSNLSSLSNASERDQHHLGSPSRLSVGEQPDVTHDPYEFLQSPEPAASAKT
Method: Method: Mice were treated with D1, 1 mg/kg, i.p. for 4 weeks. Mice were then euthanized, and tumors were collected at 8 hours, 72 hours, and 168 hours post last dose. Tumors were lysed with 1x RIPA lysis buffer (Boston BioProducts, BP-115D) with protease and phosphatase protein inhibitor (Roche Applied Science #04906837001 & 05892791001). Equal amounts of lysate (30 μg) were loaded in 4-12% Bis-Tris Midi Protein Gels in 1×MOPS buffer; samples ran at 120 V for 120 minutes. Protein was transferred to membrane with TransBlot at 250 mA for 150 minutes, and then membranes were blocked with Odyssey blocking buffer for 1 hour at room temperature. Membranes were hybridized overnight in cold room with primary antibodies. Images acquired using Li-COR imaging system (Li-COR Biotechnology, Lincoln, Nebraska).

SYO1 cells [2] = assay: Cell cycle analysis (Click-iT Plus EdU flow cytometry); assay type: cell-based; settings: 200 nM or 1 μM, 8 or 13 days, compared to DMSO and lenalidomide
Method: (§1) Procedure: SYO1 cells were treated for 8 or 13 days with DMSO, a BRD9 degrader (Compound 1) at 200 nM or 1 μM, or an E3 ligase binder (lenalidomide) at 200 nM. Compounds were refreshed every 5 days. Cell cycle analysis was performed using the Click-iT™ Plus EdU Flow Cytometry Assay (Invitrogen). The apoptosis assay was performed using the Annexin V-FITC Apoptosis Detection Kit (Sigma A9210). Assays were performed according to the manufacturer's protocol.

[3] = test system: non-synovial control cancer cell lines (293T, A549, G401); assay: Growth of non-synovial control cancer cell lines (Example 2); assay type: cell-based
Method: (§2) Cells were treated with DMSO or the BRD9 degrader, Compound 1, at indicated concentrations, and proliferation was monitored from day 7 to day 14 by measuring confluency over time using an IncuCyte live cell analysis system (FIG. 4). Growth medium and compounds were refreshed every 3-4 days.
(§3) Cells were seeded into 12-well plates and treated with DMSO, 1 μM BRD9 inhibitor, Compound 2 (also known as BI-7273, see Martin et al, J Med Chem. 59 (10): 4462-4475 (2016); see structure of compound 2 below), or 1 μM BRD9 degrader, Compound 1.
(§4) The number of cells was optimized for each cell line. Growth medium and compounds were refreshed every 3-5 days. SYO1, Yamato, A549, 293T and HS-SY-II cells were fixed and stained at day 11. ASKA cells were fixed and stained at day 23. Staining was done by incubation with crystal violet solution (0.5 g Crystal Violet, 27 ml 37% Formaldehyde, 100 mL 10×PBS, 10 mL Methanol, 863 dH20 to 1 L) for 30 min followed by 3×washes with water and drying the plates for at least 24 h at room temperature. Subsequently plates were scanned on an Odyssey CLx Imaging system (FIG. 5).
(§5) Cells were seeded into 96-well ultra-low cluster plate (Costar, #7007) in 200 μL complete media and treated at day 2 with DMSO, Staurosporin, or BRD9 degrader, Compound 1, at indicated doses (FIG. 2C). Media and compounds were changed every 5 d and cell colonies were imaged at day 14.

[4] = test system: non-synovial control cancer cell lines (RD, HCT116, and Calu6); assay: Growth of non-synovial control cancer cell lines, crystal violet day 14 (Example 3); assay type: cell-based; settings: daily treatment
Method: (§6) Procedure: Cells were seeded into 6-well or 12-well plates and were treated daily with a BRD9 degrader (Compound 1), a bromo-domain BRD9 binder (Compound 2), E3 ligase binder (lenalidomide), DMSO, or staurosporin (positive control for cell killing), at indicated concentrations. The number of cells was optimized for each cell line. Growth media was refreshed every 5 days. By day 14, medium was removed, cells were washed with PBS, and stained using 500 μL of 0.005% (w/v) crystal violet solution in 25% (v/v) methanol for at least 1 hour at room temperature. Subsequently plates were scanned on an Odyssey CLx Imaging system.

[5] = test system: synovial sarcoma cell lines (SYO1, Yamato, HS-SY-II, and ASKA); assay: Growth of synovial sarcoma cell lines (Example 2: IncuCyte confluency, crystal violet, colonies); assay type: cell-based; settings: 1 μM or indicated concentrations
Method: as §2, §3, §4, §5

[6] = test system: synovial sarcoma cell lines (SYO1, HS-SY-II, and ASKA); assay: Growth of synovial sarcoma cell lines, crystal violet day 14 (Example 3); assay type: cell-based; settings: daily treatment
Method: as §6

SYO1 cells [7] = assay: Apoptosis assay (Annexin V-FITC); assay type: cell-based; settings: 200 nM or 1 μM, 8 days, compared to DMSO controls
Method: as §1

T1 sequence (Q96SW2 whole entry partner, one chain of several, the tested form may be a part): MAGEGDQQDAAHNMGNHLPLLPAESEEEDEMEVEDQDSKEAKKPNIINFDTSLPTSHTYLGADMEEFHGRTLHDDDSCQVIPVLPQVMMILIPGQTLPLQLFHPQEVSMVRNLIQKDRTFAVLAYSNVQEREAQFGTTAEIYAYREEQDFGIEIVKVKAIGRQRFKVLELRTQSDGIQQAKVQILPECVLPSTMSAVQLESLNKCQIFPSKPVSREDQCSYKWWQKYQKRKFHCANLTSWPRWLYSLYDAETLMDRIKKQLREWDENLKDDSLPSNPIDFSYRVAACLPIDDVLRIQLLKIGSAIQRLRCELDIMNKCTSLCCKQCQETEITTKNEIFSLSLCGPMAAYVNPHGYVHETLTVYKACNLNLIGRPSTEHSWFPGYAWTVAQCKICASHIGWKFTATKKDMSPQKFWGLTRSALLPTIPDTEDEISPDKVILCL

Row | Structure (SMILES) | IC50 [1] | time after dose with complete degradation of BRD9 (BRD9) | BRD9 level in tumor (western blot) (BRD9; tumors 8, 72, 168 hours post last dose) | numbers of cells in the S-phase of the cell cycle (SYO1 cells [2]) | inhibition of cell growth [3] | inhibition of cell growth [4] | inhibition of cell growth [5] | inhibition of cell growth [6] | numbers of early- and late-apoptotic cells (SYO1 cells [7])
1 | COc1cc(-c2cn(C)c(=O)c3cnc(N4CCC4)cc23)cc(OC)c1CN1CCC(CN2CCC3(CC2)CN(c2ccc4c(c2)C(=O)N(C2CCC(=O)NC2=O)C4)C3)CC1 (racemic) [Compound D1, 3-[6-(7-[[1-([4-[6-(azetidin-1-yl)-2-methyl-1-oxo-2,7-naphthyridin-4-yl]-2,6-dimethoxyphenyl]methyl)piperidin-4-yl]methyl]-2,7-diazaspiro[3.5]nonan-2-yl)-1-oxo-3H-isoindol-2-yl]piperidine-2,6-dione] | 0.13 nM | up to 168 hours | complete degradation | – | – | – | – | – | –
2 | COc1cc(-c2cn(C)c(=O)c3cnccc23)cc(OC)c1CN(C)CC(=O)NCCOCCOCCNc1cccc2c1C(=O)N(C1CCC(=O)NC1=O)C2=O (stereo not shown) [Compound 1] | – | – | – | reduced numbers of cells in the S-phase | does not result in inhibition of the growth | did not result in inhibition of the growth | inhibition of the growth of the cells | inhibition of the growth of the cells; also recorded: most significant growth inhibition | increased numbers of early- and late-apoptotic cells
3 | COc1cc(-c2cn(C)c(=O)c3cnccc23)cc(OC)c1CN(C)C [Compound 2] | – | – | – | – | does not result in inhibition of the growth | did not result in inhibition of the growth | inhibition of the growth of the cells | inhibition of the growth of the cells | –
